Measurements taken from patent US9840478B2 (MERCK SHARP & DOHME CORP., priority 2013, dated 2017).

system: HIV-1 (H9IIIB strain); assay: Cell-based HIV infection assay using a reporter (Cell-Based), MT4-GFP cells; details: Human immunodeficiency virus 1, MT4-GFP cells infected with HIV-1 H9IIIB; 50% normal human serum; mean of at least two independent experiments; read-out: Cell-based IP
Procedure, shortened: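 IC50 from 4-parameter dose-response of % viral growth inhibition, using the 48 h/24 h infected-cell ratio scaled between DMSO and a protease/integrase/NNRTI triple-drug control. Assay used MT4 cells with HIV-LTR-GFP reporter, pre-infected 24 h with HIV-1 H9IIIB, in 50% normal human serum.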

In order of rising IC50:
1. COc1ccc([C@H](c2ccc(Cl)cc2)[C@H](N)C(=O)Nc2cccc(F)c2CC[C@H]2CNCCN2S(=O)(=O)c2ccccc2)cn1 [Example 67, (βS)-4-chloro-N-(3-fluoro-2-{2-[(2S)-1-(phenylsulfonyl)piperazin-2-yl]ethyl}phenyl)-β-(6-methoxypridin-3-yl)-L-phenylalaninamide]  5.8 nM
2. C[C@@H]1C[C@H]([C@H](c2ccc(F)cc2)[C@H](N)C(=O)Nc2cccc(F)c2CC[C@H]2CNC[C@@H](C)N2S(=O)(=O)c2ccc(F)cc2)C[C@H](C)O1 [Example 371, (2S,3R)-2-amino-3-((2R,4r,6S)-2,6-dimethyltetrahydro-2H-pyran-4-yl)-N-(3-fluoro-2-(2-((2S,6S)-1-((4-fluorophenyl)sulfonyl)-6-methylpiperazin-2-yl)ethyl)phenyl)-3-(4-fluorophenyl)propanamide]  9.6 nM
3. C[C@H]1CNC[C@H](CCc2c(F)cccc2NC(=O)[C@@H](N)C(c2cccc(F)c2)c2cccc(F)c2)N1S(=O)(=O)c1ccccc1 [Example 10, (S)-2-Amino-N-(3-fluoro-2-(2-((2S,6S)-6-methyl-1-(phenylsulfonyl)piperazin-2-yl)ethyl)phenyl)-3,3-bis(3-fluorophenyl)propanamide]  11 nM
4. COC(=O)N[C@H](C(=O)Nc1cccc(F)c1CC[C@H]1CNCC2(CC2)N1S(=O)(=O)c1ccccc1)[C@@H](c1ccc(Cl)cc1)C1CCOCC1 [Example 369, ((1R,2S)-1-(4-chlorophenyl)-3-((3-fluoro-2-(2-((S)-4-(phenylsulfonyl)-4,7-diazaspiro[2.5]octan-5-yl)ethyl)phenyl)amino)-3-oxo-1-(tetrahydro-2H-pyran-4-yl)propan-2-yl)carbamate]  11 nM
5. COc1ccc([C@H](c2ccc(Cl)cc2)[C@H](N)C(=O)Nc2cccc(F)c2CC[C@H]2CNC[C@H](C)N2S(=O)(=O)c2ccccc2)cn1 [Example 118, (βS)-4-chloro-N-(3-fluoro-2-{2-[(2S,6S)-6-methyl-1-(phenylsulfonyl)piperazin-2-yl]ethyl}phenyl)-β-(6-methoxypyridin-3-yl)-L-phenylalaninamide]  12 nM
6. COC(=O)N[C@H](C(=O)Nc1cncc(F)c1CC[C@H]1CNCCN1S(=O)(=O)c1ccccc1)[C@@H](c1ccc(Cl)cc1)c1cccc(OC(F)(F)F)c1 [Example 56, (βS)-4-chloro-N-(5-fluoro-4-{2-[(2S)-1-(phenylsulfonyl)piperazin-2-yl]ethyl}pyridin-3-yl)-Nα-(methoxycarbonyl)-β-[3-(trifluoromethoxy)phenyl]-L-phenylalaninamide]  13 nM
7. O=C(CC1CC1)N[C@H](C(=O)Nc1cncc(F)c1CC[C@H]1CNCCN1S(=O)(=O)N1CCCC1)[C@@H](c1ccc(F)cc1)c1cc(F)cc(F)c1 [Example 87]  16 nM
8. Cn1cc(S(=O)(=O)N2CCNC[C@@H]2CCc2c(F)cncc2NC(=O)C[C@@H](c2ccc(F)cc2)c2cc(F)cc(F)c2)cn1 [Example 316, (3S)-3-(3,5-difluorophenyl)-N-[5-fluoro-4-(2-{(2S)-1-[(1-methyl-1H-pyrazol-4-yl)sulfonyl]piperazin-2-yl}ethyl)pyridin-3-yl]-3-(4-fluorophenyl)propanamide]  19 nM
9. C[C@@H]1CNC[C@H](CCc2c(F)cccc2NC(=O)[C@@H](N)[C@@H](c2ccc(F)cc2)c2cc(F)cc(F)c2)N1S(=O)(=O)c1ccccc1 [Example 94, (βS)-β-(3,5-difluorophenyl)-4-fluoro-N-(3-fluoro-2-{2-[(2S,6R)-6-methyl-1-(phenylsulfonyl)piperazin-2-yl]ethyl}phenyl)-L-phenylalaninamide]  24 nM
10. CC1(C)CC([C@H](c2ccc(Cl)cc2)[C@H](N)C(=O)Nc2cccc(F)c2CC[C@H]2CNCCN2S(=O)(=O)c2ccccc2)CCO1 (stereo partly drawn) [Example 74, (βR)-4-chloro-β-(2,2-dimethyltetrahydro-2H-pyran-4-yl)-N-(3-fluoro-2-{2-[(2S)-1-(phenylsulfonyl)piperazin-2-yl]ethyl}phenyl)-L-phenylalaninamide]  24 nM
11. C[C@@H]1CNC[C@H](CCc2c(F)cccc2NC(=O)[C@@H](N)[C@@H](c2ccc(Cl)cc2)C2CCOCC2)N1S(=O)(=O)c1ccccc1 [Example 116, (βR)-4-chloro-N-(3-fluoro-2-{2-[(2S,6R)-6-methyl-1-(phenylsulfonyl)piperazin-2-yl]ethyl}phenyl)-β-(tetrahydro-2H-pyran-4-yl)-L-phenylalaninamide]  24 nM
12. C[C@H]1CNC[C@H](CCc2c(F)cncc2NC(=O)[C@@H](N)[C@@H](c2ccc(Cl)cc2)c2cccc(F)c2)N1S(C)(=O)=O [Example 213, (βS)-4-chloro-N-(5-fluoro-4-{2-[(2S,6S)-6-methyl-1-(methylsulfonyl)piperazin-2-yl]ethyl}pyridin-3-yl)-β-(3-fluorophenyl)-L-phenylalaninamide]  29 nM
13. C[C@H]1CNC[C@H](CCc2c(F)cccc2NC(=O)[C@@H](N)[C@@H](c2ccc(Cl)cc2)c2cccc(F)c2)N1S(=O)(=O)C1CC1 [Example 167, (βS)-4-chloro-N-(2-{2-[(2S,6S)-1-(cyclopropylsulfonyl)-6-methylpiperazin-2-yl]ethyl}-3-fluorophenyl)-β-(3-fluorophenyl)-L-phenylalaninamide]  31 nM
14. COC(=O)N[C@H](C(=O)Nc1cccc(F)c1CC[C@H]1CNC[C@@H](C)N1S(=O)(=O)c1ccccc1)[C@@H](c1cccc(Cl)c1)C(C)C [Example 208, (βR)-3-chloro-N-(3-fluoro-2-{2-[(2S,6R)-6-methyl-1-(phenylsulfonyl)piperazin-2-yl]ethyl}phenyl)-Nα-(methoxycarbonyl)-β-(1-methylethyl)-L-phenylalaninamide]  42 nM
15. COC(=O)N[C@H](C(=O)Nc1cccc(F)c1CC[C@H]1CNC[C@H](C)N1S(C)(=O)=O)[C@@H](c1ccc(F)cc1)C1CCOCC1 [Example 130, (βR)-4-fluoro-N-(3-fluoro-2-{2-[(2S,6S)-6-methyl-1-(methylsulfonyl)piperazin-2-yl]ethyl}phenyl)-Nα-(methoxycarbonyl)-β-(tetrahydro-2H-pyran-4-yl)-L-phenylalaninamide]  55 nM
16. COC(=O)N[C@H](C(=O)Nc1cccc(F)c1CC[C@H]1CNC[C@@H](C)N1S(=O)(=O)c1ccccc1)C(c1cccc(F)c1)c1cccc(F)c1 [Example 134, 3-fluoro-N-(3-fluoro-2-{2-[(2S,6R)-6-methyl-1-(phenylsulfonyl)piperazin-2-yl]ethyl}phenyl)-β-(3-fluorophenyl)-Nα-(methoxycarbonyl)-L-phenylalaninamide]  63 nM
17. COC(=O)N[C@H](C(=O)Nc1cccc(F)c1CC[C@H]1CNC[C@H](C)N1S(=O)(=O)c1ccccc1OC)[C@@H](c1ccc(F)cc1)c1cc(F)cc(F)c1 [Example 240, (βS)-β-(3,5-difluorophenyl)-4-fluoro-N-[3-fluoro-2-(2-{(2S,6S)-1-[(2-methoxyphenyl)sulfonyl]-6-methylpiperazin-2-yl}ethyl)phenyl]-Nα-(methoxycarbonyl)-L-phenylalaninamide]  71 nM
18. CC(C)[C@H](c1ccc(Cl)cc1)[C@H](N)C(=O)Nc1cccc(F)c1CC[C@H]1CNC[C@@H](C)N1S(=O)(=O)c1ccccc1 [Example 110, (βR)-4-chloro-N-(3-fluoro-2-{2-[(2S,6R)-6-methyl-1-(phenylsulfonyl)piperazin-2-yl]ethyl}phenyl)-β-(1-methylethyl)-L-phenylalaninamide]  74 nM
19. C[C@H]1CNC[C@H](CCc2c(F)cccc2NC(=O)[C@@H](N)[C@@H](c2ccc(Cl)cc2)C2CCOCC2)N1S(=O)(=O)C1CC1 [Example 141, (βR)-4-chloro-N-(2-{2-[(2S,6S)-1-(cyclopropylsulfonyl)-6-methylpiperazin-2-yl]ethyl}-3-fluorophenyl)-β-(tetrahydro-2H-pyran-4-yl)-L-phenylalaninamide]  77 nM
20. C[C@H]1CNC[C@H](CCc2c(F)cccc2NC(=O)[C@@H](N)[C@@H](c2ccc(F)cc2)c2cc(F)cc(F)c2)N1S(=O)(=O)c1ccccc1Cl [Example 229, (βS)-N-[2-(2-{(2S,6S)-1-[(2-chlorophenyl)sulfonyl]-6-methylpiperazin-2-yl}ethyl)-3-fluorophenyl]-β-(3,5-difluorophenyl)-4-fluoro-L-phenylalaninamide]  350 nM
21. N[C@H](C(=O)NC1CC(F)(F)CC1CC[C@H]1CNCCN1S(=O)(=O)c1ccccc1)[C@H](c1ccc(Cl)cc1)C1CCOCC1 (stereo partly drawn) [Example 360, (betaS)-4-chloro-N-(4,4-difluoro-2-{2-[(2S)-1-(phenylsulfonyl)piperazin-2-yl]ethyl}cyclopentyl)-beta-(tetrahydro-2H-pyran-4-yl)-L-phenylalaninamide]  610 nM
22. COC(=O)N[C@H](C(=O)Nc1cccc(F)c1CC[C@H]1CNC[C@H](C)N1S(=O)(=O)C1CC1)[C@@H](c1cccc(Cl)c1)C(C)C [Example 216, (βR)-3-chloro-N-(2-{2-[(2S,6S)-1-(cyclopropylsulfonyl)-6-methylpiperazin-2-yl]ethyl}-3-fluorophenyl)-Nα-(methoxycarbonyl)-β-(1-methylethyl)-L-phenylalaninamide]  1300 nM

same assay, conditions: MT4-GFP cells infected with HIV-1 H9IIIB; 50% normal human serum; mean of at least two independent experiments; read-out: Cell-based IP

In order of falling IC50:
1. O=C(C[C@@H](c1ccc(F)cc1)c1cc(F)cc(F)c1)Nc1cncc(F)c1CC[C@H]1CNCCN1S(=O)(=O)N1CC[C@@H](F)C1 [Example 328, (3S)-3-(3,5-difluorophenyl)-N-(5-fluoro-4-{2-[(2S)-1-{[(3S)-3-fluoropyrrolidin-1-yl]sulfonyl}piperazin-2-yl]ethyl}pyridin-3-yl)-3-(4-fluorophenyl)propanmide]  16 nM
2. CC(C)OCC1CNC[C@H](CCc2c(F)cccc2NC(=O)[C@@H](N)[C@@H](c2ccc(F)cc2)c2cc(F)cc(F)c2)N1S(=O)(=O)C1CC1 (stereo partly drawn) [Example 228, (βS)-N-[2-(2-{(2S)-1-(cyclopropylsulfonyl)-6-[(1-methylethoxy)methyl]piperazin-2-yl}ethyl)-3-fluorophenyl]-β-(3,5-difluorophenyl)-4-fluoro-L-phenylalaninamide]  15 nM
